Legend:
[1] = Chronic treatment in diet-induced diabetes model, circulating glucose; type: in vivo, mice; conditions: 0.1 and 0.01 mg/ml in drinking water for two weeks; measured 3, 7 and 14 days; high-fat diet 8 weeks (FIG. 3)
Protocol: Diet-induced diabetes models were created by feeding with high-fat diet for 8 weeks. These mice developed glucose intolerance and hyperglycemia. 3Cl-R-PLP was dissolved in drinking water and given to mice for two weeks. Circulating glucose levels were measured 3, 7 and 14 days after 3Cl-R-PLP treatment.

[2] = GTT in mice fed high-fat diet (diet-induced hyperglycemia); type: in vivo; conditions: 40 mg/kg body weight, mice on high fat diet 8 weeks (FIG. 2)
Protocol: (§1) The compound (3R)-1-Benzyl-N-(9-chloro-3,4-dihydro-2H-1,5-benzodioxepin-7-ylmethyl)-N-isobutyl pyrrolidine-3-carboxamide (3Cl-R-PLP) was dissolved in PEG-400 and then resuspended in water with 8% final concentration of PEG-400.8% PEG-400 in water without drug was used as vehicle. Mice were fed with regular chow. Drug or vehicle was gavaged to mice that were fasted overnight. Two hours later, glucose (2 g/kg of body weight) was injected i.p. and whole venous blood obtained from the tail vein at 0, 15, 30, 90 and 120 min after the injection was measured for glucose by using an automatic glucometer (one Touch, Lifescan, Daly, Calif.).
High fat diet was fed to mice for 8 weeks to induced diet-induced hyperglycemia. GTT test was carried out as described earlier.

[3] = Chronic treatment in db/db mice, glucose levels; type: in vivo; conditions: 0.1 mg/mL in drinking water, 2 weeks, 10-week old db/db mice, fed and fasting conditions (FIG. 4)
Protocol: Db/db mice are commonly used as genetic models of type II diabetes. 10-week old db/db mice were treated with 3Cl-R-PLP (0.1 mg/mL in drinking water) or vehicle for 2 weeks.

[4] = Glucose tolerance test (GTT), mice fed regular chow; type: in vivo
Protocol: as §1

MIN6 cells [5] = assay: Cytosolic calcium mobilization in MIN6 cells; type: cell-based
Source text: (§2) To investigate the direct effects of PK2 on the insulin secretion, the inventors performed a glucose-stimulated insulin secretion on β-cell like MIN6 cells. […] To specifically test the effects of endogenous PK2, the inventors treated MIN6 cells with 4Ind-3Cl-R-BMA along with low and high concentrations of glucose. […] As PK2 receptors have been reported coupling to Gi or Gq proteins, the inventors examined the possible signaling transduction of PK2 receptor in MIN6 cells.

[6] = Glucose-induced insulin secretion in vivo after PK2 administration; parameters: species or system mice; conditions: glucose i.p., 30 min (FIG. 10)
Source text: To understand whether insulin is directly involved, the inventors examined whether PK2 and/or its two cognate receptors, PKR1 and PKR2, are expressed in pancreas beta cells. […] The inventors tested whether this glucose-induced insulin secretion was inhibited by PK2. […] Consistent with the inhibitory effect of PK2 on insulin secretion, PK2-deficient mice have increased circulating insulin level. It is likely that at least some of glucose-lowering effects of PK2 antagonists were due to their abilities to increase insulin secretion as depicted in FIG. 11.

MIN6 cells [7] = assay: Glucose-stimulated insulin secretion in MIN6 cells; type: cell-based; conditions: 15 mM glucose, PK2 added (FIG. 12A)
Source text: as §2

MIN6 cells [8] = assay: Forskolin-induced cAMP levels in MIN6 cells; type: cell-based; conditions: PK2 (FIG. 12C)
Source text: as §2

[9] = PK2 administration in GTT, wild type mice; type: in vivo; conditions: 10 nmol/kg and 200 nmol/kg, wild type mice (FIG. 8)
Protocol: as §1
The inventors next tested the effect of PK2 administration on the performance of GTT test in wild type mice. […] This is consistent with observations that PK2-deficient mice have enhanced glucose clearance abilities.

| glucose clearance in GTT [2] | Molecule | circulating glucose levels [1] | glucose levels [3] | dose dependence of performance in GTT ([4]; 0, 1, 4, 12 and 40 mg/kg of body weight (FIG. 1B)) | glucose clearance in GTT ([4]; 4 mg/kg of body weight, gavage 2 h before glucose 2 g/kg i.p., fasted mice, regular chow (FIG. 1A)) | cytosolic calcium mobilization (MIN6 cells [5]) | glucose-induced elevation of circulating insulin [6] | insulin secretion induced by glucose (MIN6 cells [7]) | forskolin-induced cAMP levels (MIN6 cells [8]) | rate of glucose clearance in GTT [9] |
| --- | --- | --- | --- | --- | --- | --- | --- | --- | --- | --- |
| significantly improved glucose clearance | CC(C)CN(Cc1cc(Cl)c2c(c1)OCCCO2)C(=O)[C@@H]1CCN(Cc2ccccc2)C1 [Example 15, (3R)-1-Benzyl-N-(9-chloro-3,4-dihydro-2H-1,5-benzodioxepin-7-ylmethyl)-N-isobutyl pyrrolidine-3-carboxamide] | effectively decreased the glucose levels | significantly decreased glucose levels | dose-dependent effect | improved glucose clearance significantly | – | – | – | – | – |
| – | PK2: "Mature human prokineticins (PK1 and PK2) contain 86 and 81 amino acids, respectively"; "recombinant PK2" used as agonist (protein, UniProt Q9HC23 28-129, looked up) Prokineticin-2: AVITGACDKDSQCGGGMCCAVSIWVKSIRICTPMGKLGDSCHPLTRKNNFGNGRQERRKRKRSKRKKEVPFFGRRMHHTCPCLPGLACLRTSFNRFICLAQK | – | – | – | – | didn't elicit cytosolic calcium mobilization | significantly inhibited glucose-induced elevation of insulin in circulation | significantly suppressed the insulin secretion | significantly inhibited forskolin-induced cAMP levels | significantly reduced the rate of glucose clearance |

From patent US8722896B2, “Prokineticin receptor antagonists and uses thereof” (The Regents of the University of California, priority 2008, dated 2014)
